Assay results: ChEMBL document CHEMBL3046202, “Synthesis, spectral studies, antimicrobial and insect antifeedant potent keto oxiranes” (2011)
Active and inactive are the calls of the source. The rule behind the calls is not given here.

Columns and labels:
[1] = system: Enterococcus faecalis; assay: Antibacterial activity against Enterococcus faecalis assessed as diameter of growth zone inhibition at 250 ug/ml after 24-45 hrs by disc diffusion technique; format: functional; settings: read-out: DIZ
[2] = system: Proteus vulgaris; assay: Antibacterial activity against Proteus vulgaris assessed as diameter of growth zone inhibition at 250 ug/ml after 24-45 hrs by disc diffusion technique; format: functional; settings: read-out: DIZ
[3] = system: Klebsiella; assay: Antibacterial activity against Klebsiella assessed as diameter of growth zone inhibition at 250 ug/ml after 24-45 hrs by disc diffusion technique; format: functional; settings: read-out: DIZ
[4] = system: Pseudomonas; assay: Antibacterial activity against Pseudomonas assessed as diameter of growth zone inhibition at 250 ug/ml after 24-45 hrs by disc diffusion technique; format: functional; settings: read-out: DIZ
[5] = system: Staphylococcus aureus; assay: Antibacterial activity against Staphylococcus aureus assessed as diameter of growth zone inhibition at 250 ug/ml after 24-45 hrs by disc diffusion technique; format: functional; settings: read-out: DIZ
[6] = system: Escherichia coli; assay: Antibacterial activity against Escherichia coli assessed as diameter of growth zone inhibition at 250 ug/ml after 24-45 hrs by disc diffusion technique; format: functional; settings: read-out: DIZ
[7] = system: Enterococcus faecalis; assay: Antibacterial activity against Enterococcus faecalis assessed as growth inhibition at 250 ug/ml after 24-45 hrs by disc diffusion technique; format: functional, organism-based
[8] = system: Aspergillus niger; assay: Antifungal activity against Aspergillus niger assessed as growth inhibition at 50 ug/ml after 72 hrs by dilution method; format: functional, organism-based
[9] = system: Penicillium; assay: Antifungal activity against Penicillium assessed as growth inhibition at 50 ug/ml after 72 hrs by dilution method; format: functional, organism-based
[10] = system: Candida albicans; assay: Antifungal activity against Candida albicans assessed as diameter of growth zone inhibition at 250 ug/ml after 72 hrs by disc diffusion technique; format: functional; settings: read-out: DIZ
[11] = system: Achaea janata; assay: Antifeedant activity against fourth-instar larval stage of Achaea janata L. in castor leaves assessed as decrease in leaf disc consumption at 200 ppm treated for 5 mins before larval infestation by leaf-disc bioassay method; format: functional, organism-based
[12] = system: Achaea janata; assay: Antifeedant activity against fourth-instar larval stage of Achaea janata L. in castor leaves assessed as decrease in leaf disc consumption at 50 to 200 ppm treated for 5 mins before larval infestation by leaf-disc bioassay method; format: functional, organism-based

Row | Compound | zone of inhibition at 250 µg/mL [1] [mm] | zone of inhibition at 250 µg/mL [2] [mm] | zone of inhibition at 250 µg/mL [3] [mm] | zone of inhibition at 250 µg/mL [4] [mm] | zone of inhibition at 250 µg/mL [5] [mm] | zone of inhibition at 250 µg/mL [6] [mm] | growth inhibition (GI) [7] | growth inhibition (GI) [8] | growth inhibition (GI) [9] | zone of inhibition at 250 µg/mL [10] [mm] | Activity [11] | Activity [12]
1 | Nc1ccc([C@H]2O[C@@H]2C(=O)c2ccc(-c3ccccc3)cc2)cc1 | 20 | 13 | 20 | 13 | 20 | 20 |  |  |  |  |  | 
2 | O=C(c1ccc(-c2ccccc2)cc1)[C@H]1O[C@@H]1c1cccc([N+](=O)[O-])c1 |  | 13 | 13 | 13 | 13 | 13 | inactive |  |  |  |  | 
3 | O=C(c1ccc(-c2ccccc2)cc1)[C@H]1O[C@@H]1c1ccccc1 |  | 8 | 8 | 8 | 8 | 8 | inactive | inactive | inactive |  |  | 
4 | COc1ccc([C@H]2O[C@@H]2C(=O)c2ccc(-c3ccccc3)cc2)cc1 | 20 | 13 | 13 | 13 | 13 | 13 |  |  | Active | 20 |  | 
5 | O=C(c1ccc(-c2ccccc2)cc1)[C@H]1O[C@@H]1c1ccc([N+](=O)[O-])cc1 |  | 13 | 13 | 13 | 13 | 13 | inactive | inactive | inactive |  |  | 
6 | O=C(c1ccc(-c2ccccc2)cc1)[C@H]1O[C@@H]1c1cccc(Br)c1 |  | 13 | 13 | 13 | 13 | 13 | inactive | Active | Active | 20 | Active | 
7 | Cc1ccc([C@H]2O[C@@H]2C(=O)c2ccc(-c3ccccc3)cc2)cc1 | 8 | 8 | 8 | 13 | 8 |  |  | inactive |  |  |  | 
8 | O=C(c1ccc(-c2ccccc2)cc1)[C@H]1O[C@@H]1c1ccc(O)cc1 |  | 13 | 13 | 13 | 13 | 13 | inactive |  |  | 20 |  | 
9 | Nc1cccc([C@H]2O[C@@H]2C(=O)c2ccc(-c3ccccc3)cc2)c1 | 20 | 13 | 20 | 13 | 20 | 20 |  |  |  |  |  | 
10 | CN(C)c1ccc([C@H]2O[C@@H]2C(=O)c2ccc(-c3ccccc3)cc2)cc1 |  | 13 | 13 | 20 | 20 | 20 | inactive | Active | Active | 8 |  | 
11 | O=C(c1ccc(-c2ccccc2)cc1)[C@H]1O[C@@H]1c1ccccc1[N+](=O)[O-] |  | 13 | 13 | 13 | 13 | 13 | inactive | inactive | inactive |  |  | 
12 | O=C(c1ccc(-c2ccccc2)cc1)[C@H]1O[C@@H]1c1cccc(Cl)c1 |  | 13 | 13 | 13 | 13 | 13 | inactive |  |  |  | Active | 
13 | O=C(c1ccc(-c2ccccc2)cc1)[C@H]1O[C@@H]1c1ccc(Cl)cc1 |  | 13 | 13 | 13 | 13 | 13 | inactive | inactive | inactive | 8 |  | Active
